Reference: PubChem BioAssay (NCI)
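Test compounds were applied to cells in 96-well plates for 48 hours at 5 doses. GI50 is the concentration that inhibits growth by half. TGI is the concentration that stops growth completely.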

Key:
Test in all cases: NCI anticancer screen, dose series, 48 h
HCT-116 colon = system: HCT-116 colon
T-47D breast = system: T-47D breast
IGROV1 ovarian = system: IGROV1 ovarian
HT29 colon = system: HT29 colon
SF-539 CNS = system: SF-539 CNS
NCI-H460 lung = system: NCI-H460 lung
MDA-MB-231 breast = system: MDA-MB-231 breast
MDA-MB-435 = system: MDA-MB-435
UACC-62 melanoma = system: UACC-62 melanoma
MOLT-4 leukemia = system: MOLT-4 leukemia
NCI-H23 lung = system: NCI-H23 lung
SK-OV-3 ovarian = system: SK-OV-3 ovarian
SNB-19 CNS = system: SNB-19 CNS
SR leukemia = system: SR leukemia
KM12 colon = system: KM12 colon
SK-MEL-5 melanoma = system: SK-MEL-5 melanoma
OVCAR-3 ovarian = system: OVCAR-3 ovarian
MCF7 breast = system: MCF7 breast
OVCAR-4 ovarian = system: OVCAR-4 ovarian
ACHN renal = system: ACHN renal
PC-3 prostate = system: PC-3 prostate
M14 melanoma = system: M14 melanoma
RPMI-8226 leukemia = system: RPMI-8226 leukemia
K-562 leukemia = system: K-562 leukemia
HS 578T breast = system: HS 578T breast
TK-10 renal = system: TK-10 renal
786-0 renal = system: 786-0 renal

Q: What does the source list for `COc1ccc(-c2nc(-c3nc4ccc(F)cc4[nH]3)cc3c2[nH]c2ccccc23)cc1`?
A: GI50 (HCT-116 colon): 2.69 µM; TGI (HCT-116 colon): 8.25 µM; GI50 (T-47D breast): 2.56 µM; TGI (T-47D breast): > 100 µM; GI50 (IGROV1 ovarian): 2.49 µM; TGI (IGROV1 ovarian): 9.7 µM; GI50 (HT29 colon): 2.96 µM; TGI (HT29 colon): 9.01 µM; GI50 (SF-539 CNS): 2.8 µM; TGI (SF-539 CNS): 9.33 µM; GI50 (NCI-H460 lung): 1.98 µM; TGI (NCI-H460 lung): 5.81 µM; GI50 (MDA-MB-231 breast): 2.3 µM; TGI (MDA-MB-231 breast): 8.95 µM; GI50 (MDA-MB-435): 2.58 µM; TGI (MDA-MB-435): 13.4 µM; GI50 (UACC-62 melanoma): 1.86 µM; TGI (UACC-62 melanoma): 4.25 µM; GI50 (MOLT-4 leukemia): 1.56 µM; TGI (MOLT-4 leukemia): 6.14 µM; GI50 (NCI-H23 lung): 3.01 µM; TGI (NCI-H23 lung): 10.9 µM; GI50 (SK-OV-3 ovarian): 4 µM; TGI (SK-OV-3 ovarian): > 100 µM; GI50 (SNB-19 CNS): 2.94 µM; TGI (SNB-19 CNS): > 100 µM; GI50 (SR leukemia): 3.34 µM; TGI (SR leukemia): > 100 µM; GI50 (KM12 colon): 2.78 µM; TGI (KM12 colon): 12.2 µM; GI50 (SK-MEL-5 melanoma): 1.8 µM; TGI (SK-MEL-5 melanoma): 4.61 µM; GI50 (OVCAR-3 ovarian): 2.23 µM; TGI (OVCAR-3 ovarian): 5.01 µM; GI50 (MCF7 breast): 2.53 µM; TGI (MCF7 breast): > 100 µM; GI50 (OVCAR-4 ovarian): 5.1 µM; TGI (OVCAR-4 ovarian): > 100 µM; GI50 (ACHN renal): 2.87 µM; TGI (ACHN renal): > 100 µM; GI50 (PC-3 prostate): 1.69 µM; TGI (PC-3 prostate): 5.71 µM; GI50 (M14 melanoma): 2.54 µM; TGI (M14 melanoma): 7.12 µM; GI50 (RPMI-8226 leukemia): 1.16 µM; TGI (RPMI-8226 leukemia): 3.92 µM; GI50 (K-562 leukemia): 2.79 µM; TGI (K-562 leukemia): > 100 µM; GI50 (HS 578T breast): 2.82 µM; TGI (HS 578T breast): > 100 µM; GI50 (TK-10 renal): 2.2 µM; TGI (TK-10 renal): 6.74 µM; GI50 (786-0 renal): 3.33 µM; TGI (786-0 renal): > 100 µM
